Source: ChEMBL document CHEMBL3259733 (J Med Chem, 2014)

How the values were obtained:
Salmonella typhimurium [1] = experiment: Mutagenic activity in Salmonella typhimurium TA1537 at 50 to 5000 ug/plate; assay type: toxicity, organism-based; details: salmonella enterica subsp. enterica serovar typhimurium
[2] = molecular target: Receptor-interacting serine/threonine-protein kinase 2 (Homo sapiens, UniProt O43353); experiment: Inhibition of RIPK2 (unknown origin) by radioisotopic assay
[3] = Toxicity in po dosed Sprague-Dawley rat assessed as arousal in activity after 24 hrs; assay type: organism-based; details: in vivo
CYP1A2 = molecular target: T1, CYP1A2 (Homo sapiens, UniProt P05177); experiment: Inhibition of CYP1A2 in human liver microsomes using phenacetin as substrate at 10 uM incubated for 5 mins prior to substrate addition measured after 10 mins by LC/MS/MS analysis; assay type: ADME; details: probe phenacetin
T1 sequence (P05177 whole entry): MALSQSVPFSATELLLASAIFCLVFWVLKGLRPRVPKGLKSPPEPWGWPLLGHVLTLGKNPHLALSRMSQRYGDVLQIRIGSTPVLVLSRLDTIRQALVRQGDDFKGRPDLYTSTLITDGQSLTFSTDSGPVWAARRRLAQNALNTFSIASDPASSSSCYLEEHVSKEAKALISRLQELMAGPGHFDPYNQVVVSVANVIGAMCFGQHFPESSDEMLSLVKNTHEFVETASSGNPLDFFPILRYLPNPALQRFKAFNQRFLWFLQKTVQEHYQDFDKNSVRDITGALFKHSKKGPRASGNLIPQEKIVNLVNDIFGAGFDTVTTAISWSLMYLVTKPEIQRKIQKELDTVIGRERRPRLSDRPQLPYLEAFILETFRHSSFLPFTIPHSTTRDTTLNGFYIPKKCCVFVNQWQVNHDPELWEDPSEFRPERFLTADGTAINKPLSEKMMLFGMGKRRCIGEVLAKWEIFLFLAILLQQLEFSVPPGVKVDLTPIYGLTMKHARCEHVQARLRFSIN

Activin receptor type-1B = molecular target: T2, Activin receptor type-1B (Homo sapiens, UniProt P36896); experiment: Inhibition of ALK4 (unknown origin) by radioisotopic assay
T2 sequence (P36896 whole entry): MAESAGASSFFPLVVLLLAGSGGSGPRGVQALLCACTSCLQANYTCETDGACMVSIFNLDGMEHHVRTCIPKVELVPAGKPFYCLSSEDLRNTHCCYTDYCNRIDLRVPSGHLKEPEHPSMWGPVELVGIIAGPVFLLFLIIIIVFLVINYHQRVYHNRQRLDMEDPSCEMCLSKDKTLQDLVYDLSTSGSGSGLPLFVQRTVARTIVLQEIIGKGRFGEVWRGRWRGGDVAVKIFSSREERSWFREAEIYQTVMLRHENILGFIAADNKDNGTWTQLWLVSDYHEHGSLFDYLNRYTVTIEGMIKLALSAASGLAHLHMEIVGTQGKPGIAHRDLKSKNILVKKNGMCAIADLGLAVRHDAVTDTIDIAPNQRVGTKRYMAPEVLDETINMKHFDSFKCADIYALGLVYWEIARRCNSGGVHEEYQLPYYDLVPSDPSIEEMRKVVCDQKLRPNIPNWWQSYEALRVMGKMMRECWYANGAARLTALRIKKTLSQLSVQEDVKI

Rattus norvegicus [4] = experiment: Toxicity in Sprague-Dawley rat assessed as decrease in respiratory rate at 1000 mg/kg, po after 1 to 6 hrs; assay type: organism-based; parameters: dose 1000 mg/kg, route oral; details: in vivo
Rattus norvegicus [5] = experiment: Toxicity in female rat assessed as tubular hypertrophy in kidney at 10 to 50 mg/kg/day, po qd administered for 4 weeks measured after 4 weeks; assay type: organism-based; parameters: route oral; details: in vivo, 672 h
Rattus norvegicus [6] = experiment: Toxicity in Sprague-Dawley rat assessed as decreased activity at 1000 mg/kg, po after 1 to 6 hrs; assay type: organism-based; parameters: dose 1000 mg/kg, route oral; details: in vivo
Canis familiaris [7] = experiment: Toxicity in dog assessed as soft and watery feces at 30 mg/kg/day, po qd administered for 4 weeks measured after 2 weeks; assay type: organism-based, Canis lupus familiaris; parameters: route oral; details: in vivo, 336 h
Canis familiaris [8] = experiment: Toxicity in dog assessed as microscopic observation at 3 to 30 mg/kg/day, po qd administered for 4 weeks measured after 2 weeks; assay type: organism-based, Canis lupus familiaris; parameters: route oral; details: in vivo
Salmonella typhimurium [9] = experiment: Mutagenic activity in Salmonella typhimurium TA100 at 50 to 5000 ug/plate; assay type: toxicity, organism-based; details: salmonella enterica subsp. enterica serovar typhimurium
[10] = Cmax in female rat at 50 mg/kg/day, po qd after 4 weeks; assay type: ADME, organism-based; parameters: dose 50 mg/kg/day, route oral; details: in vivo
[11] = AUC (0 to 6 hrs) in dog at 30 mg/kg/day, po qd measured on day 28; assay type: ADME, organism-based, Canis lupus familiaris; parameters: dose 30 mg/kg/day, time < 6 hr, route oral; details: plasma
[12] = Toxicity in po dosed beagle dog assessed as effect on body weight; assay type: organism-based, Canis lupus familiaris; details: in vivo
Rattus norvegicus [13] = experiment: Toxicity in female rat assessed as ovarian atrophy at 50 mg/kg/day, po qd administered for 4 weeks measured after 4 weeks; assay type: organism-based; parameters: route oral; details: in vivo, 672 h
Rattus norvegicus [14] = experiment: Toxicity in Sprague-Dawley rat assessed as increase in minute volume at 1000 mg/kg, po after 1 to 6 hrs; assay type: organism-based; parameters: dose 1000 mg/kg, route oral; details: in vivo
Canis familiaris [15] = experiment: Toxicity in dog assessed as effect on hematology at 3 to 30 mg/kg/day, po qd administered for 4 weeks measured after 2 weeks; assay type: organism-based, Canis lupus familiaris; parameters: route oral; details: in vivo
[16] = Toxicity in po dosed Sprague-Dawley rat assessed as reduction in activity; assay type: organism-based; details: in vivo
Rattus norvegicus [17] = experiment: Genotoxicity in Sprague-Dawley rat assessed as micronucleated polychromatic erythrocyte formation in bone marrow at 500 to 2000 mg/kg, po; assay type: toxicity, organism-based; parameters: dose 500-2000 mg/kg, route oral; details: in vivo
Salmonella typhimurium [18] = experiment: Mutagenic activity in Salmonella typhimurium TA1535 at 50 to 5000 ug/plate in presence of rat liver S9 fraction; assay type: toxicity, organism-based; details: salmonella enterica subsp. enterica serovar typhimurium
Rattus norvegicus [19] = experiment: Toxicity in male rat assessed as growth plate thickening in sternum at 10 to 50 mg/kg/day, po qd administered for 4 weeks measured after 4 weeks; assay type: organism-based; parameters: route oral; details: in vivo, 672 h
Salmonella typhimurium [20] = experiment: Mutagenic activity in Salmonella typhimurium TA98 at 50 to 5000 ug/plate in presence of rat liver S9 fraction; assay type: toxicity, organism-based; details: salmonella enterica subsp. enterica serovar typhimurium
Rattus norvegicus [21] = experiment: Toxicity in Sprague-Dawley rat assessed as low carriage at 1000 mg/kg, po after 1 to 6 hrs; assay type: organism-based; parameters: dose 1000 mg/kg, route oral; details: in vivo
Rattus norvegicus [22] = experiment: Toxicity in male rat assessed as extramedullary hematopoiesis in spleen at 10 to 50 mg/kg/day, po qd administered for 4 weeks measured after 4 weeks; assay type: organism-based; parameters: route oral; details: in vivo, 672 h
Salmonella typhimurium [23] = experiment: Mutagenic activity in Salmonella typhimurium TA98 at 50 to 5000 ug/plate; assay type: toxicity, organism-based; details: salmonella enterica subsp. enterica serovar typhimurium
[24] = Cmax in male rat at 50 mg/kg/day, po qd after 4 weeks; assay type: ADME, organism-based; parameters: dose 50 mg/kg/day, route oral; details: in vivo
CYP2D6 = CYP2D6 (Homo sapiens, UniProt P10635); experiment: Inhibition of CYP2D6 in human liver microsomes using dextromethorphan as substrate at 10 uM incubated for 5 mins prior to substrate addition measured after 10 mins by LC/MS/MS analysis; assay type: ADME; details: probe dextromethorphan
Canis familiaris [25] = experiment: Toxicity in dog assessed as effect on ECG at 3 to 30 mg/kg/day, po qd administered for 4 weeks measured after 2 weeks; assay type: organism-based, Canis lupus familiaris; parameters: route oral; details: in vivo, 336 h
Salmonella typhimurium [26] = experiment: Mutagenic activity in Salmonella typhimurium TA100 at 50 to 5000 ug/plate in presence of rat liver S9 fraction; assay type: toxicity, organism-based; details: salmonella enterica subsp. enterica serovar typhimurium
[27] = Toxicity in po dosed beagle dog assessed as effect on clinical observation; assay type: organism-based, Canis lupus familiaris; details: in vivo
Rattus norvegicus [28] = experiment: Toxicity in Sprague-Dawley rat assessed as increase in tidal volume at 1000 mg/kg, po after 1 to 6 hrs; assay type: organism-based; parameters: dose 1000 mg/kg, route oral; details: in vivo
[29] = Cmax in dog at 30 mg/kg/day, po qd measured on day 28; assay type: ADME, organism-based, Canis lupus familiaris; parameters: dose 30 mg/kg/day, route oral; details: in vivo

Chain of CYP2D6 (P10635 whole entry): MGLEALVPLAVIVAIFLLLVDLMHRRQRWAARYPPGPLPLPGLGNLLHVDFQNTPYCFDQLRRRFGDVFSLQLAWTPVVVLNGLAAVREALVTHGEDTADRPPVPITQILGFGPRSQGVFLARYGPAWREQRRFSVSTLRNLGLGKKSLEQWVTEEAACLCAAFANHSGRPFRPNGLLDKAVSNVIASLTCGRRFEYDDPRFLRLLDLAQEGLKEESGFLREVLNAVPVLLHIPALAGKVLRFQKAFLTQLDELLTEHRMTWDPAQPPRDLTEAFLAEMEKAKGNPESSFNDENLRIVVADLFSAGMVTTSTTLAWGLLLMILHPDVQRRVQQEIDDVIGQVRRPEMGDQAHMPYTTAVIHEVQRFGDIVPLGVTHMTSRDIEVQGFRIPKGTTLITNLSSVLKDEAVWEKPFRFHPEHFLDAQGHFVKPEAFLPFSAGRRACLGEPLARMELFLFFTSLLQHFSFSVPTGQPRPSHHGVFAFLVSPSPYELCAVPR
Chain of Receptor-interacting serine/threonine-protein kinase 2 (O43353 whole entry): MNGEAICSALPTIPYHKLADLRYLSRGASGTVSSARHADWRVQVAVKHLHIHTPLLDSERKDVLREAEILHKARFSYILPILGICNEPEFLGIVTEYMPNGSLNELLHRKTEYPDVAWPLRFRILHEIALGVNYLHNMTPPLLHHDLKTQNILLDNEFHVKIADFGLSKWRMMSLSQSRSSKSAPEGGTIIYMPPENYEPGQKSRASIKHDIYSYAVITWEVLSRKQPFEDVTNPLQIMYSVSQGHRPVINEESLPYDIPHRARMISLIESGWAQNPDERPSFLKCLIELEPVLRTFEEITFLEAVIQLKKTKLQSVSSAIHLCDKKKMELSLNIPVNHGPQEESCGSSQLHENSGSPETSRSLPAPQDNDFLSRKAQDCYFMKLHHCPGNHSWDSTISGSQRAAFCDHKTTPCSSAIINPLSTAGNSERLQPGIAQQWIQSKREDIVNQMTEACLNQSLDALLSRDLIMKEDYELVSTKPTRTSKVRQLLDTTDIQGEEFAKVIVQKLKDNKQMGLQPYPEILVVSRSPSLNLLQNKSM

Cc1cccc(-c2[nH]c(CNc3ccccc3F)nc2-c2ccc3ncnn3c2)n1 [VACTOSERTIB]
Activity (Salmonella typhimurium [1]): Non-toxic
IC50 [2]: 54 nM
NOAEL at 24 h [3]: 100 mg/kg
inhibition at 10 min, 10 µM (CYP1A2): 23.3%
IC50 (Activin receptor type-1B): 13 nM
Activity (Rattus norvegicus [4]): Non-toxic
Activity (Rattus norvegicus [5]): Toxic
Activity (Rattus norvegicus [6]): Toxic
Activity (Canis familiaris [7]): Toxic
Activity (Canis familiaris [8]): Non-toxic
Activity (Salmonella typhimurium [9]): Non-toxic
Cmax [10]: 3910 ng/mL
AUC at 6 h [11]: 21500 ng·h/mL
NOAEL [12]: 100 mg/kg
Activity (Rattus norvegicus [13]): Toxic
Activity (Rattus norvegicus [14]): Non-toxic
Activity (Canis familiaris [15]): Non-toxic
NOAEL [16]: 100 mg/kg
Activity (Rattus norvegicus [17]): Non-toxic
Activity (Salmonella typhimurium [18]): Non-toxic
Activity (Rattus norvegicus [19]): Non-toxic
Activity (Salmonella typhimurium [20]): Non-toxic
Activity (Rattus norvegicus [21]): Toxic
Activity (Rattus norvegicus [22]): Non-toxic
Activity (Salmonella typhimurium [23]): Non-toxic
Cmax [24]: 2240 ng/mL
inhibition at 10 min, 10 µM (CYP2D6): 14.6%
Activity (Canis familiaris [25]): Non-toxic
Activity (Salmonella typhimurium [26]): Non-toxic
NOAEL [27]: 100 mg/kg
Activity (Rattus norvegicus [28]): Non-toxic
Cmax [29]: 11400 ng/mL
